Assay results taken from ChEMBL document CHEMBL4190322, “Structure-based development of novel triazoles and related thiazolotriazoles as anticancer agents and Cdc25A/B phosphatase inhibitors. Synthesis, in vitro biological evaluation, molecular docking and in silico ADME-T studies” (Eur J Med Chem, 2017).
Calls of active or inactive are those of the source. The calls are words filed in the database; no cut-off is given here.

What was measured:
Type in all cases: functional
HT-29 = test: Growth inhibition of human HT-29 cells at 10 uM after 48 hrs by SRB assay relative to control
OVCAR-8 = test: Growth inhibition of human OVCAR8 cells at 10 uM after 48 hrs by SRB assay relative to control
CCRF-CEM = test: Growth inhibition of human CCRF-CEM cells at 10 uM after 48 hrs by SRB assay relative to control; settings: read-out: GI
K562 = test: Growth inhibition of human K562 cells at 10 uM after 48 hrs by SRB assay relative to control; settings: K562, 48 h, read-out: GI
SR = test: Growth inhibition of human SR cells at 10 uM after 48 hrs by SRB assay relative to control; settings: read-out: GI
MOLT-4 = test: Growth inhibition of human MOLT4 cells at 10 uM after 48 hrs by SRB assay relative to control; settings: MOLT-4, 48 h, read-out: GI
RPMI-8226 = test: Growth inhibition of human RPMI8226 cells at 10 uM after 48 hrs by SRB assay relative to control; settings: RPMI-8226, 48 h, read-out: GI
HL-60 = test: Growth inhibition of human HL60 cells at 10 uM after 48 hrs by SRB assay relative to control
A549 = test: Growth inhibition of human A549 cells at 10 uM after 48 hrs by SRB assay relative to control; settings: A549, 48 h, read-out: GI
HOP-62 = test: Growth inhibition of human HOP62 cells at 10 uM after 48 hrs by SRB assay relative to control
HOP-92 = test: Growth inhibition of human HOP92 cells at 10 uM after 48 hrs by SRB assay relative to control; settings: HOP-92, 48 h, read-out: GI
NCI-H226 = test: Growth inhibition of human NCI-H226 cells at 10 uM after 48 hrs by SRB assay relative to control
NCI-H23 = test: Growth inhibition of human NCI-H23 cells at 10 uM after 48 hrs by SRB assay relative to control; settings: NCI-H23, 48 h, read-out: GI
NCI-H322M = test: Growth inhibition of human NCI-H322M cells at 10 uM after 48 hrs by SRB assay relative to control
NCI-H522 = test: Growth inhibition of human NCI-H522 cells at 10 uM after 48 hrs by SRB assay relative to control; settings: NCI-H522, 48 h, read-out: GI
HCT-116 = test: Growth inhibition of human HCT116 cells at 10 uM after 48 hrs by SRB assay relative to control; settings: HCT-116, 48 h, read-out: GI
KM12 = test: Growth inhibition of human KM12 cells at 10 uM after 48 hrs by SRB assay relative to control; settings: KM12, 48 h, read-out: GI
SF-268 = test: Growth inhibition of human SF268 cells at 10 uM after 48 hrs by SRB assay relative to control
SNB-19 = test: Growth inhibition of human SNB19 cells at 10 uM after 48 hrs by SRB assay relative to control
SNB-75 = test: Growth inhibition of human SNB75 cells at 10 uM after 48 hrs by SRB assay relative to control; settings: SNB-75, 48 h, read-out: GI
U-251 = test: Growth inhibition of human U251 cells at 10 uM after 48 hrs by SRB assay relative to control; settings: U-251, 48 h, read-out: GI
LOX IMVI = test: Growth inhibition of human LOXIMVI cells at 10 uM after 48 hrs by SRB assay relative to control; settings: read-out: GI
SK-MEL-2 = test: Growth inhibition of human SK-MEL-2 cells at 10 uM after 48 hrs by SRB assay relative to control
SK-MEL-5 = test: Growth inhibition of human SK-MEL-5 cells at 10 uM after 48 hrs by SRB assay relative to control
UACC-257 = test: Growth inhibition of human UACC257 cells at 10 uM after 48 hrs by SRB assay relative to control
UACC-62 = test: Growth inhibition of human UACC62 cells at 10 uM after 48 hrs by SRB assay relative to control
OVCAR-3 = test: Growth inhibition of human OVCAR3 cells at 10 uM after 48 hrs by SRB assay relative to control
OVCAR-4 = test: Growth inhibition of human OVCAR4 cells at 10 uM after 48 hrs by SRB assay relative to control
NCI/ADR-RES = test: Growth inhibition of human NCI/ADR-RES cells at 10 uM after 48 hrs by SRB assay relative to control; settings: read-out: GI
SK-OV-3 = test: Growth inhibition of human SKOV3 cells at 10 uM after 48 hrs by SRB assay relative to control; settings: SK-OV-3, 48 h, read-out: GI
786-0 = test: Growth inhibition of human 786-0 cells at 10 uM after 48 hrs by SRB assay relative to control
A498 = test: Growth inhibition of human A498 cells at 10 uM after 48 hrs by SRB assay relative to control; settings: A498, 48 h, read-out: GI
CAKI-1 = test: Growth inhibition of human Caki1 cells at 10 uM after 48 hrs by SRB assay relative to control; settings: CAKI-1, 48 h, read-out: GI
RXF 393 = test: Growth inhibition of human RXF393 cells at 10 uM after 48 hrs by SRB assay relative to control
UO-31 = test: Growth inhibition of human UO31 cells at 10 uM after 48 hrs by SRB assay relative to control; settings: UO-31, 48 h, read-out: GI
PC-3 = test: Growth inhibition of human PC3 cells at 10 uM after 48 hrs by SRB assay relative to control; settings: PC-3, 48 h, read-out: GI
MCF7 = test: Growth inhibition of human MCF7 cells at 10 uM after 48 hrs by SRB assay relative to control
Hs-578T = test: Growth inhibition of human Hs 578T cells at 10 uM after 48 hrs by SRB assay relative to control
MDA-MB-468 = test: Growth inhibition of human MDA-MB-468 cells at 10 uM after 48 hrs by SRB assay relative to control
Malme-3M = test: Growth inhibition of human MALME-3M cells at 10 uM after 48 hrs by SRB assay relative to control

Structure (SMILES) | growth inhibition (GI) (HT-29) | growth inhibition (GI) (OVCAR-8) | inhibition of growth at 10 µM (CCRF-CEM) [%] | inhibition of growth at 10 µM (K562) [%] | inhibition of growth at 10 µM (SR) [%] | inhibition of growth at 10 µM (MOLT-4) [%] | inhibition of growth at 10 µM (RPMI-8226) [%] | growth inhibition (GI) (HL-60) | inhibition of growth at 10 µM (A549) [%] | inhibition of growth at 10 µM (HOP-92) [%] | inhibition of growth at 10 µM (NCI-H23) [%] | growth inhibition (GI) (NCI-H322M) | inhibition of growth at 10 µM (NCI-H522) [%] | inhibition of growth at 10 µM (HCT-116) [%] | inhibition of growth at 10 µM (KM12) [%] | inhibition of growth at 10 µM (SNB-75) [%] | inhibition of growth at 10 µM (U-251) [%] | inhibition of growth at 10 µM (LOX IMVI) [%] | growth inhibition (GI) (UACC-257) | growth inhibition (GI) (UACC-62) | other results
CCSc1nnc(Cc2ccc(OC)cc2)n1-c1ccc(C)cc1 | inactive | inactive | 16.7 | 20.2 | 8.17 | 17.7 | 13.5 | inactive | 3.38 | 31.6 | 4.3 | inactive | 14.6 | 4.52 | 6.34 | 4 | 1.35 | 3.04 | inactive | inactive | inhibition of growth at 10 µM (HOP-62; HOP-62, 48 h, read-out: GI): 6%; growth inhibition (GI) (NCI-H226): inactive; growth inhibition (GI) (SF-268): inactive; growth inhibition (GI) (SNB-19): inactive; inhibition of growth at 10 µM (SK-MEL-2; SK-MEL-2, 48 h, read-out: GI): 1.9%; inhibition of growth at 10 µM (SK-MEL-5; SK-MEL-5, 48 h, read-out: GI): 2%; growth inhibition (GI) (OVCAR-3): inactive; growth inhibition (GI) (OVCAR-4): inactive; inhibition of growth at 10 µM (NCI/ADR-RES): 10.1%; inhibition of growth at 10 µM (SK-OV-3): 6.45%; growth inhibition (GI) (786-0): inactive; inhibition of growth at 10 µM (A498): 6.56%; inhibition of growth at 10 µM (CAKI-1): 4.82%; growth inhibition (GI) (RXF 393): inactive; inhibition of growth at 10 µM (UO-31): 14.2%; inhibition of growth at 10 µM (PC-3): 14.3%; growth inhibition (GI) (MCF7): inactive; growth inhibition (GI) (Hs-578T): inactive; inhibition of growth at 10 µM (MDA-MB-468; MDA-MB-468, 48 h, read-out: GI): 2.5%; growth inhibition (GI) (Malme-3M): inactive
COc1ccc(Cc2nnc3sc(SCc4ccccc4)nn23)cc1 | inactive | inactive | 25.1 | 12.4 | 12.9 | 11.6 | 2.01 | inactive | 3.43 | 27.6 | 7.22 | inactive | 16.8 | 1.27 | 6 | 11 | 2.8 | 15.8 | inactive | inactive | growth inhibition (GI) (HOP-62): inactive; inhibition of growth at 10 µM (NCI-H226; NCI-H226, 48 h, read-out: GI): 14%; inhibition of growth at 10 µM (SF-268; SF-268, 48 h, read-out: GI): 2.02%; inhibition of growth at 10 µM (SNB-19; SNB-19, 48 h, read-out: GI): 10.6%; growth inhibition (GI) (SK-MEL-2): inactive; growth inhibition (GI) (SK-MEL-5): inactive; growth inhibition (GI) (OVCAR-3): inactive; inhibition of growth at 10 µM (OVCAR-4; OVCAR-4, 48 h, read-out: GI): 8.58%; inhibition of growth at 10 µM (NCI/ADR-RES): 3.11%; inhibition of growth at 10 µM (SK-OV-3): 1.1%; inhibition of growth at 10 µM (786-0; 786-0, 48 h, read-out: GI): 6.46%; inhibition of growth at 10 µM (A498): 19.7%; inhibition of growth at 10 µM (CAKI-1): 5.66%; growth inhibition (GI) (RXF 393): inactive; inhibition of growth at 10 µM (UO-31): 20.6%; inhibition of growth at 10 µM (PC-3): 6%; inhibition of growth at 10 µM (MCF7; MCF7, 48 h, read-out: GI): 5.28%; growth inhibition (GI) (Hs-578T): inactive; growth inhibition (GI) (MDA-MB-468): inactive; growth inhibition (GI) (Malme-3M): inactive
